Laboratory results reported in US8912184B1, “Therapeutic and diagnostic methods” (Alzheimer's Institute of America, Inc., priority 2010, dated 2014).
Where two headings read alike, the source gives them in different places.

Test system: HCT116 cells
Experiment: Nicotinic Acid Rescue Cytotoxicity Assay, first method: cytotoxicity to HCT116 cells in presence and absence of 10 μM nicotinic acid
Type: cell-based
Conditions: Homo sapiens, HCT-116, 72 h
Procedure: Additionally, Nicotinic Acid (NA) rescue of cytotoxicity of Nampt inhibitors was assessed by two distinct methods. In the first method, Nampt1 inhibitor cytotoxicity was evaluated in the presence and absence of exogenous nicotinic acid (NA) at a fixed concentration. […] Twenty four hours after cells were plated, the media was removed and replaced with media containing 10 μM nicotinic acid. Compounds were then immediately added. Cell viability was then assessed at 72 h.
Using the first of the two assays described above, the 90 compounds shown in Table 5, below, were tested for cytotoxicity towards Naprt1-proficient HCT116 cells, and for the ability of NA to block the observed cytotoxicity (or “rescue” the cells from the cytotoxic activity of the tested compound). The compounds listed are referred to by a unique rescue analysis example number (i.e., R1, R2 . . . R90) that is used as a reference number in Table 4, in which the results of the cytotoxicity and rescue assays are presented.

[1] = absence of nicotinic acid, read-out: HCT116 72 h cytotoxicity
[2] = presence of 10 μM nicotinic acid, read-out: HCT116 72 h cytotoxicity with 10 μM Nicotinic Acid

S=C(NCCCCCCOc1ccc(Cl)cc1)Nc1cccnc1 [Example R39, 1-[6-(4-Chlorophenoxy)hexyl]-3-pyridin-3-ylthiourea]
IC50 [1]: 1620 nM | IC50 [2]: > 10000 nM

N#C/N=C(/NCCCCCCOc1ccc(Cl)cc1)NCc1cccnc1 [Example R40, 1-[6-(4-Chlorophenoxy)hexyl]-2-cyano-3-(pyridin-3-ylmethyl)guanidine]
IC50 [1]: 1090 nM | IC50 [2]: > 10000 nM

O=C(NCCCCCCOc1ccc(Cl)cc1)Nc1ccc(F)c(F)c1 [Example R41, 1-[6-(4-Chlorophenoxy)hexyl]-3-(3,4-difluorophenyl)urea]
IC50 [1]: 7080 nM | IC50 [2]: 6000 nM

CC(C)CCN(Cc1ccccc1Cl)c1ccc(C(=O)NCc2cccnc2)cc1 [Example R42, 4-[(2-Chlorobenzyl)(3-methylbutyl)amino]-N-(pyridin-3-ylmethyl)benzamide]
IC50 [1]: 387 nM | IC50 [2]: > 10000 nM

C/C=C/CN(Cc1ccccc1Cl)c1ccc(C(=O)NCc2cccnc2)cc1 [Example R43, 4-[(2E)-But-2-en-1-yl(2-chlorobenzyl)amino]-N-(pyridin-3-ylmethyl)benzamide]
IC50 [1]: 98.6 nM | IC50 [2]: > 10000 nM

CC(C)=CCN(Cc1ccccc1Cl)c1ccc(C(=O)NCc2cccnc2)cc1 [Example R44, 4-[(2-Chlorobenzyl)(3-methylbut-2-en-1-yl)amino]-N-(pyridin-3-ylmethyl)benzamide]
IC50 [1]: 16.3 nM | IC50 [2]: > 10000 nM

CN(C)c1cccc2c(S(=O)(=O)Nc3ccc(NC(=O)NCc4cccnc4)cc3)cccc12 [Example R45, 5-(Dimethylamino)-N-(4-{[(pyridin-3-ylmethyl)carbamoyl]amino}phenyl) naphthalene-1-sulfonamide]
IC50 [1]: 4.8 nM | IC50 [2]: > 10000 nM

O=C(NCc1cccnc1)Nc1ccc(NS(=O)(=O)c2ccc3ccccc3c2)cc1 [Example R46, N-(4-{[(Pyridin-3-ylmethyl)carbamoyl]amino}phenyl) naphthalene-2-sulfonamide]
IC50 [1]: 64.8 nM | IC50 [2]: > 10000 nM

C#CCN(Cc1ccc2nc(C)n(C)c(=O)c2c1)c1ccc(C(=O)NCc2cccnc2)cc1 [Example R47, 4-{[(2,3-Dimethyl-4-oxo-3,4-dihydroquinazolin-6-yl)methyl](prop-2-yn-1-yl)amino}-N-(pyridin-3-ylmethyl)benzamide]
IC50 [1]: 33.5 nM | IC50 [2]: > 10000 nM

O=C(NCc1cccnc1)c1ccc(OCc2ccccc2-c2cnc3ccccc3c2)cc1 [Example R48, N-(Pyridin-3-ylmethyl)-4-{[2-(quinolin-3-yl)benzyl]oxy}benzamide]
IC50 [1]: 38.8 nM | IC50 [2]: > 10000 nM

O=C(NCc1cccnc1)Nc1ccc(NS(=O)(=O)c2ccccc2-c2ccccc2)cc1 [Example R49, N-(4-{[(Pyridin-3-ylmethyl)carbamoyl]amino}phenyl)biphenyl-2-sulfonamide]
IC50 [1]: 4.9 nM | IC50 [2]: > 10000 nM

O=C(NCc1cccnc1)Nc1ccc(NS(=O)(=O)c2ccc([N+](=O)[O-])c(C(F)(F)F)c2)cc1 [Example R50, 4-Nitro-N-(4-{[(pyridin-3-ylmethyl)carbamoyl]amino}phenyl)-3-(trifluoromethyl)benzenesulfonamide]
IC50 [1]: 6.7 nM | IC50 [2]: > 10000 nM

CC(C)=CCN(Cc1cc2c(=O)n(C)c(C)nc2cc1Cl)c1ccc(C(=O)NCc2cccnc2)cc1 [Example R51, 4-{[(7-Chloro-2,3-dimethyl-4-oxo-3,4-dihydroquinazolin-6-yl)methyl](3-methylbut-2-en-1-yl)amino}-N-(pyridin-3-ylmethyl)benzamide]
IC50 [1]: 9.5 nM | IC50 [2]: > 10000 nM

CC(C)=CCN(Cc1cc2c(=O)n(C)cnc2cc1Cl)c1ccc(C(=O)NCc2cccnc2)cc1 [Example R52, 4-{[(7-Chloro-3-methyl-4-oxo-3,4-dihydroquinazolin-6-yl)methyl](3-methylbut-2-en-1-yl)amino}-N-(pyridin-3-ylmethyl)benzamide]
IC50 [1]: 7.3 nM | IC50 [2]: > 10000 nM

CCOC(=O)c1c[nH]c2ccc(C(=O)Nc3ccc(C(=O)NCc4cccnc4)cc3)cc2c1=O [Example R53, ethyl 4-oxo-6-({4-[(pyridin-3-ylmethyl)carbamoyl]phenyl}carbamoyl)-1,4-dihydroquinoline-3-carboxylate]
IC50 [1]: 6.8 nM | IC50 [2]: > 10000 nM

O=C(NCc1cccnc1)Nc1ccc(S(=O)(=O)Nc2ccccc2Cl)cc1 [Example R54, N-(2-chlorophenyl)-4-{[(pyridin-3-ylmethyl)carbamoyl]amino} benzenesulfonamide]
IC50 [1]: 71.5 nM | IC50 [2]: > 10000 nM

O=C(NCc1cccnc1)Nc1ccc(NC(=O)c2ccccc2-c2ccccc2)cc1 [Example R55, N-(4-{[(pyridin-3-ylmethyl)carbamoyl]amino}phenyl)biphenyl-2-carboxamide]
IC50 [1]: 48.8 nM | IC50 [2]: > 1000 nM

O=C(NCc1cccnc1)Nc1ccc(NS(=O)(=O)c2ccccc2Br)cc1F [Example R56, 2-bromo-N-(3-fluoro-4-{[(pyridin-3-ylmethyl)carbamoyl]amino}phenyl)benzene-sulfonamide]
IC50 [1]: 50 nM | IC50 [2]: > 1000 nM

O=C(NCc1cccnc1)Nc1ccc(NS(=O)(=O)c2cc(C(F)(F)F)ccc2Br)cc1 [Example R57, 2-Bromo-N-(4-{[(pyridin-3-ylmethyl)carbamoyl]amino}phenyl)-5-(trifluoromethyl)benzenesulfonamide]
IC50 [1]: 0.5 nM | IC50 [2]: > 10000 nM

O=C(NCc1cccnc1)Nc1ccc(C(=O)Nc2ccccc2-c2ccccc2)cc1 [Example R58, N-(biphenyl-2-yl)-4-{[(pyridin-3-ylmethyl)carbamoyl]amino}benzamide]
IC50 [1]: 1.6 nM | IC50 [2]: > 10000 nM

N#C/N=C(/NCc1ccc(NS(=O)(=O)c2ccccc2-c2ccccc2)cc1)Nc1ccncc1 [Example R59, N-(4-{[N″-cyano-N′-(pyridin-4-yl)carbamimidamido]methyl}phenyl) biphenyl-2-sulfonamide]
IC50 [1]: 0.6 nM | IC50 [2]: > 5000 nM

O=C(NCc1cccnc1)Nc1ccc(NS(=O)(=O)c2cc(C(F)(F)F)ccc2-c2ccccc2)cc1 [Example R60, N-(4-{[(pyridin-3-ylmethyl)carbamoyl]amino}phenyl)-4-(trifluoromethyl)biphenyl-2-sulfonamide]
IC50 [1]: 3.7 nM | IC50 [2]: > 5000 nM

O=C(NCc1cccnc1)Nc1ccc(NS(=O)(=O)c2c(F)cc(F)cc2Br)cc1 [Example R61, 2-bromo-4,6-difluoro-N-(4-{[(pyridin-3-ylmethyl)carbamoyl]amino}phenyl)benzene-sulfonamide]
IC50 [1]: 1.8 nM | IC50 [2]: > 1000 nM

O=C(NCc1cccnc1)Nc1ccc(NS(=O)(=O)c2ccc(F)cc2Br)cc1 [Example R62, 2-bromo-4-fluoro-N-(4-{[(pyridin-3-ylmethyl)carbamoyl]amino}phenyl)benzene-sulfonamide]
IC50 [1]: 12.9 nM | IC50 [2]: > 1000 nM

O=C(NCc1cccnc1)Nc1ccc(NS(=O)(=O)c2ccccc2-c2ccsc2)cc1 [Example R63, N-(4-{[(pyridin-3-ylmethyl)carbamoyl]amino}phenyl)-2-(thiophen-3-yl)benzenesulfonamide]
IC50 [1]: 1.6 nM | IC50 [2]: > 10000 nM

O=C(NCc1cccnc1)Nc1ccc(COc2ccccc2-c2ccccc2)cc1 [Example R64, 1-{4-[(Biphenyl-2-yloxy)methyl]phenyl}-3-(pyridin-3-ylmethyl)urea]
IC50 [1]: 0.2 nM | IC50 [2]: > 10000 nM

O=C(NCc1ccc(NS(=O)(=O)c2ccccc2-c2ccccc2)cc1)Nc1ccncc1 [Example R65, N-(4-{[(pyridin-4-ylcarbamoyl)amino]methyl}phenyl)biphenyl-2-sulfonamide]
IC50 [1]: 0.5 nM | IC50 [2]: > 1000 nM

N#C/N=C(\NCCCNS(=O)(=O)c1ccccc1-c1ccccc1)Nc1ccncc1 [Example R66, N-{3-[N″-cyano-N′-(pyridin-4-yl)carbamimidamido]propyl}biphenyl-2-sulfonamide]
IC50 [1]: 1.3 nM | IC50 [2]: 5000 nM

O=C(NCc1cccnc1)Nc1ccc(NS(=O)(=O)c2cc(C(F)(F)F)ccc2C(F)(F)F)cc1 [Example R67]
IC50 [1]: 0.3 nM | IC50 [2]: > 1000 nM

O=C(NCc1cccnc1)Nc1ccc(NS(=O)(=O)c2ccc(F)cc2-c2ccccc2)cc1 [Example R68, 5-fluoro-N-(4-{[(pyridin-3-ylmethyl)carbamoyl]amino}phenyl)biphenyl-2-sulfonamide]
IC50 [1]: 2.1 nM | IC50 [2]: > 5000 nM

O=C(NCc1cccnc1)Nc1ccc(NS(=O)(=O)c2cc(C(F)(F)F)ccc2Cl)cc1 [Example R69, 2-chloro-N-(4-{[(pyridin-3-ylmethyl)carbamoyl]amino}phenyl)-5-(trifluoromethyl)benzenesulfonamide]
IC50 [1]: 1.3 nM | IC50 [2]: > 1000 nM

N#C/N=C(/NCc1ccc(COc2ccccc2-c2ccccc2)cc1)Nc1ccncc1 [Example R70, 1-{4-[(biphenyl-2-yloxy)methyl]benzyl}-2-cyano-3-pyridin-4-ylguanidine]
IC50 [1]: 1.1 nM | IC50 [2]: > 5000 nM

O=C(NCc1cccnc1)Nc1ccc(NS(=O)(=O)c2sccc2Br)cc1 [Example R71, 3-bromo-N-(4-{[(pyridin-3-ylmethyl)carbamoyl]amino}phenyl) thiophene-2-sulfonamide]
IC50 [1]: 13.2 nM | IC50 [2]: > 5000 nM

O=C(NCc1cccnc1)Nc1ccc(NS(=O)(=O)c2cc(C(F)(F)F)ccc2F)cc1 [Example R72, 2-fluoro-N-(4-{[(pyridin-3-ylmethyl)carbamoyl]amino}phenyl)-5-(trifluoromethyl)benzenesulfonamide]
IC50 [1]: 15 nM | IC50 [2]: > 5000 nM

O=C(NCc1ccc(NS(=O)(=O)c2cc(C(F)(F)F)ccc2Br)cc1)Nc1ccncc1 [Example R73, 2-bromo-N-(4-{[(pyridin-4-ylcarbamoyl)amino]methyl}phenyl)-5-(trifluoromethyl)benzenesulfonamide]
IC50 [1]: 1 nM | IC50 [2]: > 5000 nM
